The test relates to male gamete. Nature of the test: Dual gamete formation assay, male gametes. The note with it: Plasmodium falciparum; NF54 parasites in a DGFA, 4 replicates. Type of test: cell-based. Here is the method:
To determine whether the cyclopropyl carboxamide class has transmission blocking potential we profiled selected analogs in a dual gamete formation assay. In this assay, stage V gametocytes are treated with compound, and gametogenesis is induced by the addition of xanthurenic acid. Male gamete viability is determined by an imaging algorithm measuring motile flagellation, while female viability is measured using an antibody to the female-specific Pfs25 surface marker. […] Collectively, the activity observed against male gametes is consistent with activity observed with other cyt b inhibitors.
Dual Gamete Formation Assay. Compounds were evaluated as previously described as a platform run at both Imperial College London and the London School of Hygiene and Tropical Medicine. Briefly, mature stage V gametocytes were exposed to compounds for 48 h at 37 °C in 384 well plates in gametocyte culture medium (RPMI 1640 supplemented with 25 mM HEPES, 50 μg/mL hypoxanthine, 4.8 g/L NaHCO3, 2 mM L-glutamine, 5 % pooled type AB serum, 0.5 % Albumax II (Gibco)) under a 1 % O2/3 % CO2/96 % N2 environment. Gametogenesis was then triggered by the addition of 10 μL ookinete medium (gametocyte culture medium supplemented with 100 μM xanthurenic acid and 0.27 μg/mL Cy3-labelled anti-Pfs25 antibody) to each well at room temperature. Plates were then cooled on a metal block at 4 °C for 4 min to ensure even cooling and then stabilized for a further 4 min at 28 °C. At 20 min post-induction, male gametogenesis was recorded in each well by automated brightfield microscopy using a × 4 objective lens and 1.5 × magnifier ( × 6 effective magnification). Afterward, plates were incubated in the dark at room temperature for 24 h and then female gametogenesis recorded in each well by automated fluorescence microscopy (anti-Pfs25-positive cells). […] All data was evaluated in comparison to the positive and negative controls to calculate percentage inhibition of male and female gametocytes, and dose response analysis and EC50 calculation performed using GraphPad Prism.

Usually EC50 stands for the midpoint of the concentration-response curve. Read a low EC50 as a more potent agent.

The compound `O=C(NC1CC1)c1ccc(CN(Cc2ccc(Cl)cc2Cl)C2CC2)cc1` [W499 (2)] registered an EC50 of 760 nM.
